The values below come from patent US12685726B2, “Sulfoximines as inhibitors of NaV1.8” (Gruenenthal GmbH, priority 2022, dated 2026).

The target in this experiment is T1, human NaV 1.8 (Homo sapiens, UniProt Q9Y5Y9).
T1 construct: expressed in transfected cells; host or cells: HEK (recombinant cell line)
T1 sequence (Q9Y5Y9 whole entry): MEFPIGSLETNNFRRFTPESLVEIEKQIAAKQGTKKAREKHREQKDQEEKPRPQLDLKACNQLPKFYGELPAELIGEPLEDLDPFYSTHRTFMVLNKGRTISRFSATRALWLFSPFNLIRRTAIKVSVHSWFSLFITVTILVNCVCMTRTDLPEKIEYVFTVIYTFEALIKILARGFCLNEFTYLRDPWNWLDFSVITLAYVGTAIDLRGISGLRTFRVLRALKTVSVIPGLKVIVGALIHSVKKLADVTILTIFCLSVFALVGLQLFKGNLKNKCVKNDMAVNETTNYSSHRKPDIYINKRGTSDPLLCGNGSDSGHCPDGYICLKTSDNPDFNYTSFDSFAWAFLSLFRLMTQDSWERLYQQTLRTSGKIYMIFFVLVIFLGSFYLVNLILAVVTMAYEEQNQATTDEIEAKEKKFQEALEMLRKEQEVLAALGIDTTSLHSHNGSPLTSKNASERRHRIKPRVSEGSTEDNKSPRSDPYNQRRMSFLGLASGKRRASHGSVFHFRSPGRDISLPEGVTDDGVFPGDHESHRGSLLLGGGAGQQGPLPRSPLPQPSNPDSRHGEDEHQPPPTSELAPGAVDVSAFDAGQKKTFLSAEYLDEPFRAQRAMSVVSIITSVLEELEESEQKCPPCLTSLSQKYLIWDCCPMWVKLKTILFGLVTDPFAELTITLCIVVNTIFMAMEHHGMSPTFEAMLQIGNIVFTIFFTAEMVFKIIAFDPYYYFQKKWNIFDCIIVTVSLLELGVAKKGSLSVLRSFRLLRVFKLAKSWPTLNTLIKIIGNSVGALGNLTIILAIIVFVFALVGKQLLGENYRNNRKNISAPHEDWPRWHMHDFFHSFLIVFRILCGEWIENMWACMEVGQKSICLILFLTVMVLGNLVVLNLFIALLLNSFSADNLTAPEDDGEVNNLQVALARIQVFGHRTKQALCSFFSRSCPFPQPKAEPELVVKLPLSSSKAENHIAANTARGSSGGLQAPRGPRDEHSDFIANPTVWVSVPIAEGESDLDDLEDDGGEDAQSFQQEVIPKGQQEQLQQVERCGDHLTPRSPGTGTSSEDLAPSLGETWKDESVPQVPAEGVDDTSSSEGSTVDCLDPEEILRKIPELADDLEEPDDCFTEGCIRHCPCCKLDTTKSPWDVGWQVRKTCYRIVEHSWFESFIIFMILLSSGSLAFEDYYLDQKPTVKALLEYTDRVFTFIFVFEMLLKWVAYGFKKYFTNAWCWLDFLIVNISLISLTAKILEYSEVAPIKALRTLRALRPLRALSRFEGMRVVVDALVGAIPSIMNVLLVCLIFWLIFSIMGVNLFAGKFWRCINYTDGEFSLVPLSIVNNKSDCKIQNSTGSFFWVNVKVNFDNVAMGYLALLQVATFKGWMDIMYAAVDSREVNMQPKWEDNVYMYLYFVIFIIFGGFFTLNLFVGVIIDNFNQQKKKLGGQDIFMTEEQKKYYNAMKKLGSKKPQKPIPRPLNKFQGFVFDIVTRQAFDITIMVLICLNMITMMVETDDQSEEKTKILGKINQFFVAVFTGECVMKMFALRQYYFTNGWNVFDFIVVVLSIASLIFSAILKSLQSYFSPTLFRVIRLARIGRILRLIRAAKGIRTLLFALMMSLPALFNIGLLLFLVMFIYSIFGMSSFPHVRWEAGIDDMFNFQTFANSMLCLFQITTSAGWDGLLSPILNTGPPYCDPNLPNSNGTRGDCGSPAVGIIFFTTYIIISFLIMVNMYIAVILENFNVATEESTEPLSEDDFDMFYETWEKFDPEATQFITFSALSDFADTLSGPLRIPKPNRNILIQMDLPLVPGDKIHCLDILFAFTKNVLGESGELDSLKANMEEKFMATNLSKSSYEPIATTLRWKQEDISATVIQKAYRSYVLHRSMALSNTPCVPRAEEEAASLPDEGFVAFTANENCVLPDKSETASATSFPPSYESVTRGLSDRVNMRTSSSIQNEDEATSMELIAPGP
The experiment in a line: Automated whole-cell patch clamp (Qube384) voltage-clamp recordings of sodium currents in HEK-NaV1.8 cell line. As to conditions: read-out: Potency category (human NaV 1.8 IC50). It is filed as cell-based. The method in brief:
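HEK cells expressing NaV1.8 with b3, whole-cell automated voltage clamp at room temperature or 19° C.; CsF-based internal, pH 7.4 external. State-dependent (−120 mV, V1/2 4 s, −10 mV test pulses) and 10/20 Hz 40-pulse protocols; ~12 min compound, vehicle-corrected, IC50 by 4-parameter logistic fit.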
Take `C[S@](=N)(=O)c1cccc(NC(=O)c2c(C(F)(F)F)c(C3(F)CC3)nn2CC2C[C@@H]2C(F)(F)F)c1` (single isomer, unassigned) [Example 134b, 3-(1-Fluorocyclopropyl)-N-(3-(S-methylsulfonimidoyl)phenyl)-4-(trifluoromethyl)-1-(((trans)-2-(trifluoromethyl)cyclopropyl)methyl)-1H-pyrazole-5-carboxamide]: the IC50 is at most 100 nM.
Under `CS(=N)(=O)c1cc(NC(=O)c2c(C(F)(F)F)c(C3CC3)nn2CC2CCC(F)(F)C2)ccn1` (single isomer, unassigned) [Example 7b, 3-cyclopropyl-1-((3,3-difluorocyclopentyl)methyl)-N-(2-(S-methylsulfonimidoyl)pyridin-4-yl)-4-(trifluoromethyl)-1H-pyrazole-5-carboxamide] stands at most 100 nM.
`Cc1c(C(C)(F)F)nn(C[C@H]2C[C@@H](C(F)(F)F)C2)c1C(=O)Nc1ccnc(S(C)(=N)=O)c1` (single isomer, unassigned) [Example 31b, 3-(1,1-difluoroethyl)-4-methyl-N-(2-(S-methylsulfonimidoyl)pyridin-4-yl)-1-(((cis)-3-(trifluoromethyl)cyclobutyl)methyl)-1H-pyrazole-5-carboxamide]: the IC50 was at most 100 nM.
Next, `CC1(Cn2nc(C3CC3F)c(C(F)(F)F)c2C(=O)Nc2ccnc(S(C)(=N)=O)c2)CC(F)(F)C1` (racemic) [Example 62a, 1-((3,3-Difluoro-1-methylcyclobutyl)methyl)-3-(2-fluorocyclopropyl)-N-(2-(S-methylsulfonimidoyl)pyridin-4-yl)-4-(trifluoromethyl)-1H-pyrazole-5-carboxamide]: at most 100 nM.
Under `CC(=O)N1CC2(CCC2Cn2nc(C3CC3)c(C(F)(F)F)c2C(=O)Nc2ccnc(S(C)(=N)=O)c2)C1` (single isomer, unassigned) [Example 140b, 1-((2-Acetyl-2-azaspiro[3.3]heptan-5-yl)methyl)-3-cyclopropyl-N-(2-(S-methylsulfonimidoyl)pyridin-4-yl)-4-(trifluoromethyl)-1H-pyrazole-5-carboxamide] stands 100 to 1000 nM.
As to `CC1(Cn2nc(C3(F)CC3)c(C(F)F)c2C(=O)Nc2ccc(F)c(S(C)(=N)=O)c2)CC(F)(F)C1` (single isomer, unassigned) [Example 133b, 1-((3,3-Difluoro-1-methylcyclobutyl)methyl)-4-(difluoromethyl)-N-(4-fluoro-3-(S-methylsulfonimidoyl)phenyl)-3-(1-fluorocyclopropyl)-1H-pyrazole-5-carboxamide], the IC50 was at most 100 nM.
For `CC1(Cn2nc(C3(F)CC3)c(C(F)(F)F)c2C(=O)Nc2ccnc(S(C)(=N)=O)c2)CC(F)(F)C1` (single isomer, unassigned) [Example 70a, 1-((3,3-Difluoro-1-methylcyclobutyl)methyl)-3-(1-fluorocyclopropyl)-N-(2-(S-methylsulfonimidoyl)pyridin-4-yl)-4-(trifluoromethyl)-1H-pyrazole-5-carboxamide], the IC50 is at most 100 nM.
Next, `CC1(Cn2nc(C3(F)CC3)c(C(F)(F)F)c2C(=O)Nc2cc(F)cc(S(C)(=N)=O)c2)CC(F)(F)C1` (single isomer, unassigned) [Example 127a, 1-((3,3-Difluoro-1-methylcyclobutyl)methyl)-N-(3-fluoro-5-(S-methylsulfonimidoyl)phenyl)-3-(1-fluorocyclopropyl)-4-(trifluoromethyl)-1H-pyrazole-5-carboxamide]: at most 100 nM.
Regarding `CC1(Cn2nc(C3CC34CC4)c(C(F)(F)F)c2C(=O)Nc2ccnc(S(C)(=N)=O)c2)CC(F)(F)C1` (single isomer, unassigned) [Example 64a, 1-((3,3-difluoro-1-methylcyclobutyl)methyl)-N-(2-(S-methylsulfonimidoyl)pyridin-4-yl)-3-(spiro[2.2]pentan-1-yl)-4-(trifluoromethyl)-1H-pyrazole-5-carboxamide], the IC50 is at most 100 nM.
For `CS(=N)(=O)c1cc(NC(=O)c2c(C(F)(F)F)c(C3CC3)nn2CC23CC(F)(C2)C3)ccn1` (single isomer, unassigned) [Example 25b, 3-cyclopropyl-1-((3-fluorobicyclo[1.1.1]pentan-1-yl)methyl)-N-(2-(S-methylsulfonimidoyl)pyridin-4-yl)-4-(trifluoromethyl)-1H-pyrazole-5-carboxamide], the IC50 is 100 to 1000 nM.
Turning to `C[S@@](=N)(=O)c1cccc(NC(=O)c2c(C(F)(F)F)c(C3(F)CC3)nn2CC2C[C@@H]2C(F)(F)F)c1` (single isomer, unassigned) [Example 134a, 3-(1-Fluorocyclopropyl)-N-(3-(S-methylsulfonimidoyl)phenyl)-4-(trifluoromethyl)-1-(((trans)-2-(trifluoromethyl)cyclopropyl)methyl)-1H-pyrazole-5-carboxamide], the concentration for half-maximal inhibition (IC50) is at most 100 nM.
Consider `CC1(Cn2nc(C3(F)CC3)c(C(F)F)c2C(=O)Nc2ccc(F)c(S(C)(=N)=O)c2)CC(F)(F)C1` (single isomer, unassigned) [Example 133a, 1-((3,3-Difluoro-1-methylcyclobutyl)methyl)-4-(difluoromethyl)-N-(4-fluoro-3-(S-methylsulfonimidoyl)phenyl)-3-(1-fluorocyclopropyl)-1H-pyrazole-5-carboxamide], for which the IC50 is at most 100 nM.
`CC1(Cn2nc(C3CC3)c(C(F)(F)F)c2C(=O)Nc2cccc(S(C)(=N)=O)c2)CC(F)(F)C1` (single isomer, unassigned) [Example 45b, 3-cyclopropyl-1-((3,3-difluoro-1-methylcyclobutyl)methyl)-N-(3-(S-methylsulfonimidoyl)phenyl)-4-(trifluoromethyl)-1H-pyrazole-5-carboxamide]: the IC50 is at most 100 nM.
`CC1(Cn2nc(C(C)(C)F)c(C(F)(F)F)c2C(=O)Nc2ccnc(S(C)(=N)=O)c2)CC(F)(F)C1` (single isomer, unassigned) [Example 148a, 1-((3,3-Difluoro-1-methylcyclobutyl)methyl)-3-(2-fluoropropan-2-yl)-N-(2-(S-methylsulfonimidoyl)pyridin-4-yl)-4-(trifluoromethyl)-1H-pyrazole-5-carboxamide]: the IC50 was at most 100 nM.
Under `CC1(Cn2nc(C3CC3(F)F)c(C(F)(F)F)c2C(=O)Nc2ccnc(S(C)(=N)=O)c2)CC(F)(F)C1` (single isomer, unassigned) [Example 63c, 1-((3,3-Difluoro-1-methylcyclobutyl)methyl)-3-(2,2-difluorocyclopropyl)-N-(2-(S-methylsulfonimidoyl)pyridin-4-yl)-4-(trifluoromethyl)-1H-pyrazole-5-carboxamide] stands at most 100 nM; under `CS(=N)(=O)c1cc(NC(=O)c2c(C(F)(F)F)c(C3CC3)nn2CC2(F)CC3(CCC3)C2)ccn1` (single isomer, unassigned) [Example 21a, 3-cyclopropyl-1-((2-fluorospiro[3.3]heptan-2-yl)methyl)-N-(2-(S-methylsulfonimidoyl)pyridin-4-yl)-4-(trifluoromethyl)-1H-pyrazole-5-carboxamide], at most 100 nM.
Consider `Cc1c(C(C)(F)F)nn(CC2(C)CCC(F)(F)CC2)c1C(=O)Nc1ccnc(S(C)(=N)=O)c1` (single isomer, unassigned) [Example 11b, 1-((4,4-difluoro-1-methylcyclohexyl)methyl)-3-(1,1-difluoroethyl)-4-methyl-N-(2-(S-methylsulfonimidoyl)pyridin-4-yl)-1H-pyrazole-5-carboxamide], for which the IC50 was at most 100 nM.
Take `C[C@@H]1C[C@H]1c1nn(CC2(C)CC(F)(F)C2)c(C(=O)Nc2ccnc([S@](C)(=N)=O)c2)c1C(F)(F)F` (single isomer, unassigned) [Example 65c, 1-((3,3-Difluoro-1-methylcyclobutyl)methyl)-3-((trans)-2-methylcyclopropyl)-N-(2-(S-methylsulfonimidoyl)pyridin-4-yl)-4-(trifluoromethyl)-1H-pyrazole-5-carboxamide]: the IC50 was at most 100 nM.
Turning to `Cc1c(C(C)(F)F)nn(CC2(C)CCC(F)(F)CC2)c1C(=O)Nc1ccnc(S(C)(=N)=O)c1` (single isomer, unassigned) [Example 11a, 1-((4,4-difluoro-1-methylcyclohexyl)methyl)-3-(1,1-difluoroethyl)-4-methyl-N-(2-(S-methylsulfonimidoyl)pyridin-4-yl)-1H-pyrazole-5-carboxamide], the IC50 was at most 100 nM.
For `CS(=N)(=O)c1cc(NC(=O)c2c(C(F)(F)F)c(C3CC3)nn2CC2CCC23CNC3)ccn1` (single isomer, unassigned) [Example 153a, 1-((2-Azaspiro[3.3]heptan-5-yl)methyl)-3-cyclopropyl-N-(2-(S-methylsulfonimidoyl)pyridin-4-yl)-4-(trifluoromethyl)-1H-pyrazole-5-carboxamide], the IC50 was 1000 to 10000 nM.
Under `CC1(Cn2nc(C34CC(F)(C3)C4)c(C(F)F)c2C(=O)Nc2cccc(S(C)(=N)=O)c2)CC(F)(F)C1` (single isomer, unassigned) [Example 113b, 1-((3,3-Difluoro-1-methylcyclobutyl)methyl)-4-(difluoromethyl)-3-(3-fluorobicyclo[1.1.1]pentan-1-yl)-N-(3-(S-methylsulfonimidoyl)phenyl)-1H-pyrazole-5-carboxamide] stands at most 100 nM; under `CS(=N)(=O)c1cc(NC(=O)c2c(C(F)(F)F)c(C3CC3)nn2CC2CCC23CNC3)ccn1` (single isomer, unassigned) [Example 153b, 1-((2-Azaspiro[3.3]heptan-5-yl)methyl)-3-cyclopropyl-N-(2-(S-methylsulfonimidoyl)pyridin-4-yl)-4-(trifluoromethyl)-1H-pyrazole-5-carboxamide], 1000 to 10000 nM.
Take `CS(=N)(=O)c1cc(NC(=O)c2c(C(F)(F)F)c(C3CC3)nn2CC23CC2CC(F)(F)C3)ccn1` (single isomer, unassigned) [Example 95a, 3-Cyclopropyl-1-((3,3-difluorobicyclo[3.1.0]hexan-1-yl)methyl)-N-(2-(S-methylsulfonimidoyl)pyridin-4-yl)-4-(trifluoromethyl)-1H-pyrazole-5-carboxamide]: the IC50 was at most 100 nM.
